This experiment deals with CN (mouse brain extract). To be noted: peptide 25 nM, RII substrate.

As for GPHPVIVIT [pep1s], the “effect on CN activity at 25 nM” value was “minimal effects on CN activity”.

The record behind these values is publication PMC8667882 (Journal of Enzyme Inhibition and Medicinal Chemistry, 2021).
